Assay results published in US7763615B2, “Ecteinascidin analogs for use as antitumour agents” (priority 2001, dated 2010).

Legend:
[1] = tested on: H-MEC-1; experiment: Inhibition of cells growth by colorimetric assay (SRB), H-MEC-1; assay type: cell-based
How it was run: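 SRB colorimetric growth assay: 5×10^3 cells/well, 18 h attachment, 48 h continuous compound exposure at 10–10^−8 μg/ml in DMSO/EtOH/PBS. TCA fixation, SRB stain, OD 490 nm; triplicate wells, GI, TGI and LC derived.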

[2] = tested on: PANC-1; experiment: cells; assay type: cell-based; conditions: PANC-1
How it was run: (§1)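 Seeding density 5×10^3 cells/well; attachment 18 h in drug-free medium; exposure 48 h, 10 to 10^−8 μg/ml. Fixation cold TCA 60 min at 4° C, SRB 10 min, absorbance 490 nm.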

[3] = tested on: K562; experiment: cells; assay type: cell-based
How it was run: as §1

[4] = tested on: SK-BR3; experiment: cells; assay type: cell-based; conditions: SK-BR3
How it was run: as §1

[5] = tested on: LOVO-DOX; experiment: cells; assay type: cell-based
How it was run: as §1

[6] = tested on: LOVO; experiment: cells; assay type: cell-based; conditions: LOVO
How it was run: as §1

[7] = tested on: DU145; experiment: cells; assay type: cell-based
How it was run: as §1

[8] = tested on: IGROV-ET; experiment: cells; assay type: cell-based; conditions: IGROV-ET
How it was run: as §1

[9] = tested on: A549; experiment: cells; assay type: cell-based; conditions: A549
How it was run: as §1

[10] = tested on: IGROV; experiment: cells; assay type: cell-based
How it was run: as §1

[11] = tested on: LNCAP; experiment: cells; assay type: cell-based; conditions: LNCAP
How it was run: as §1

[12] = tested on: HT29; experiment: cells; assay type: cell-based
How it was run: as §1

[13] = tested on: MEL-28; experiment: cells; assay type: cell-based; conditions: MEL-28
How it was run: as §1

[14] = tested on: NRK-52E, normal rat kidney cells; conditions: 24 h
[15] = tested on: AML-12, normal mouse liver cells; conditions: 24 h
Protocol: (§2) In order to assess the cytotoxicity of the drugs to normal cells, we used 96 well plates plated at a density of 5000 cells per well (except for the FDC-P1 which were plated at 12,000 cells per well) with normal cell lines (ATCC, Table 1) maintained as per the directions of the ATCC: AML-12, normal mouse liver cells; NRK-52E, normal rat kidney cells; L8, normal rat skeletal muscle cells; FDC-P1, normal mouse myelogeous stem cells; and H9c2 (2-1), normal rat cardiac muscle cells. The cells in each plate were permitted to settle overnight before adding the test drug.
(§3) To each well (100 μl medium) 10 μl of drug in media was added at varying concentrations (1×10-10-0.01 mg/ml final concentration) and further incubated overnight at 37° C. with 5% CO2. After 24 h the following assays were performed. All experiments were repeated at least 3 times and were assayed in duplicate.
(§4) MTS assay (CellTiter 96 aqueous) was performed according to the manufacturer's (Promega) directions (for all cell types). Cell viability (mitochondrial activity) is determined via enzymatic conversion of the formazan substrate.

[16] = tested on: L8, normal rat skeletal muscle cells; conditions: 24 h
Protocol: as §2, §3, §4

[17] = tested on: FDC-P1, normal mouse myelogeous stem cells; conditions: 24 h
[18] = physchem; conditions: pH 7.4, log D n-Octanol-Dulbecco's PBS pH 7.4
[19] = target: CYP3A4 (Homo sapiens, UniProt P08684); conditions: 30 min, 10 µM
Sequence of CYP3A4 (P08684 whole entry): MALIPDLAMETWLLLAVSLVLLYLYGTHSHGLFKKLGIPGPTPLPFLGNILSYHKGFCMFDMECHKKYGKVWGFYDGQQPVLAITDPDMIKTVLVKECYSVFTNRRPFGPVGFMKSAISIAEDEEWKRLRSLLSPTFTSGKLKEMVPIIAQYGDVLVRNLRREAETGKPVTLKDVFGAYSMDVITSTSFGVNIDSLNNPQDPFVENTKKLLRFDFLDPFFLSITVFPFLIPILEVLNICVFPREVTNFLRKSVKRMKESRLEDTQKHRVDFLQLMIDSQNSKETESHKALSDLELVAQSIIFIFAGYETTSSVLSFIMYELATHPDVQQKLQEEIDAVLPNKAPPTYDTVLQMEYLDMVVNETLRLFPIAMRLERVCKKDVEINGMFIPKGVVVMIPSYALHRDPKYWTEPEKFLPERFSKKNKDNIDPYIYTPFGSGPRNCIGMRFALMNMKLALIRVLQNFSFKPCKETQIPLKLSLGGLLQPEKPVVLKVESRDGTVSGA
Protocol: For CYP3A4 inhibition assay, the compound were tested at 10 μM in duplicate with a 0.25% final concentration of both methanol and acetonitrile in presence of the fluorescent substrate BFC (50 μM). The conversion of the BFC (7-benzyloxy-4-trifluoromethylcoumarin) in HFC (7-hydroxy-4-trifluoromethylcoumarin) was determined spectro-fluormetry after incubation with the enzyme during 30 min at 37° C.
For both assays, the fluorescent intensity measured at t=0 is subtracted from that measured after the appropriate incubation time. The ratio of signal-to-noise is calculated by comparing the fluorescence in incubations containing the test compound to the control samples containing the same solvent vehicle. The percent of control activity is calculated and reported as percent inhibition.

[20] = tested on: H9c2 (2-1), normal rat cardiac muscle cells; conditions: 24 h
[21] = s9, 60 min, 1 μM
[22] = tested on: SK-OV3; experiment: Inhibition of cells growth by colorimetric assay (SRB), SK-OV3; assay type: cell-based; conditions: SK-OV3
How it was run: as §1

`COc1c(C)cc2c(c1O)[C@@H]1C3[C@@H]4SC[C@]5(NC(C)Cc6c5[nH]c5ccccc65)C(=O)COC[C@@H](c5c6c(c(C)c(OC(C)=O)c54)OCO6)N3[C@@H](O)[C@H](C2)N1C` (stereo partly drawn) [Compound 43] showed a GI50 ([1]; H-MEC-1) of 11.8 nM, a TGI ([1]; H-MEC-1) of 1.77E−07 and a CC50 ([1]; Homo sapiens, HMEC-1, read-out: LC50, H-MEC-1) of 13 µM. For the same compound, the GI50 [2] was 5.28 nM, the TGI [2] was 1.15E−08 and the CC50 ([2]; read-out: LC50) was 39 nM. For the same compound, the GI50 ([3]; Homo sapiens, K562, K562) was 2.51 nM, the TGI ([3]; K562) was 4.88E−09 and the CC50 ([3]; read-out: LC50, K562) was 9.49 nM. The GI50 [4] was 3.77 nM, the TGI [4] was 8.65E−09 and the CC50 ([4]; read-out: LC50) was 41.1 nM. The CC50 ([5]; Homo sapiens, read-out: LC50, LOVO-DOX) was 13 µM, the GI50 ([5]; LOVO-DOX) was 39.8 nM and the TGI ([5]; LOVO-DOX) was 1.06E−07. For the same compound, the GI50 [6] was 3.5 nM, the TGI [6] was 8.32E−09 and the CC50 ([6]; read-out: LC50) was 38.9 nM. It also gave a TGI ([7]; DU145) of 9.04E−09, a GI50 ([7]; Homo sapiens, DU-145, DU145) of 4.76 nM and a CC50 ([7]; read-out: LC50, DU145) of 13 nM. The GI50 [8] was 9.1 nM, the TGI [8] was 2.35E−08 and the CC50 ([8]; read-out: LC50) was 13 µM. For the same compound, the TGI [9] was 1.08E−08, the GI50 ([9]; read-out: GI50) was 5.12 nM and the CC50 ([9]; read-out: LC50) was 32.8 nM. For the same compound, the TGI [10] was 5.20E−09, the GI50 ([10]; Homo sapiens) was 2.73 nM and the CC50 ([10]; read-out: LC50) was 9.88 nM. The GI50 [11] was 2.02 nM, the TGI [11] was 3.76E−09 and the CC50 ([11]; read-out: LC50) was 7 nM. It also gave a TGI ([12]; HT29) of 1.04E−07, a GI50 ([12]; Homo sapiens, HT-29, HT29) of 46.4 nM and a CC50 ([12]; Homo sapiens, HT-29, read-out: LC50, HT29) of 13 µM. The GI50 [13] was 308 nM, the TGI [13] was 5.81E−07 and the CC50 ([13]; read-out: LC50) was 1090 nM. The Kidney [14] was 4.38E−08, the Liver [15] was 7.57E−08 and the Skeletal [16] was 1.60E−07. For the same compound, the Myelo [17] was 6.23E−08, the logD at 60 min [18] was over 4.5 and the “CYP3A4 (% inhibition)” value [19] was 15 % inhibition. The Heart [20] was 9.42E−08, the “Solubility Dulbecco's PBS pH 7.4” value was 5.85 μM and the “Human Liver S9 Metabolic Stability (% remaining)” value [21] was 3 % remaining. For the same compound, the GI50 [22] was 3.39 nM, the TGI [22] was 7.17E−09 and the CC50 ([22]; read-out: LC50) was 13 nM.
